Test results as given in patent US20100151508A1, “COMPOUNDS” (THE ROBERT GORDON UNIVERSITY, priority 2006, published 2010).

Assays:
[1] = Fluorescence emission of myricetin derivatives (fluorimetry); format: physicochemical; details: 2.5 μM in ethanol (KB861 in THF); for λmax (nm): fluorescence emission
Experimental: All the KBX compounds and Myricetin were prepared for analysis of their fluorescent properties (Table 1) using ethanol as the solvent, with the exception of KB861 which used tetrahydrofuran (THF). All measurements were taken at a compound concentration of 2.5 μM.

[2] = In vitro oxidation of KB861 solutions, analysed by fluorimetry; format: physicochemical
Experimental: A series of K5861 solutions (0.5, 1.0, and 1.5 μM) were prepared using THF. […] Another series of KB861 solutions of the same concentrations were prepared and analysed by fluorimetry in their natural unoxidised state (Graph 1).

[3] = tested on: Caco-2 cells; assay: Probe fluorescence in Caco-2 cells after glutathione depletion by BSO; format: cell-based, human; details: Caco-2, glutathione depleted by progressive BSO exposure
Description: To examine probe sensitivity to a less severe, more gradually provoked physiological oxidative stress within Caco-2 cells, cellular glutathione was depleted by progressive buthionine sulphoximine (BSO) exposure.

[4] = tested on: Caco-2 cells; assay: Probe fluorescence in menadione stressed versus healthy Caco-2 cells (fluorescence microscopy); format: cell-based, human; details: for Effect of menadione concentration on intracellular fluorescence: Caco-2, 1, 10 and 20 μM menadione; for Decrease in fluorescence in stressed cells compared to healthy cells: confluent Caco-2, menadione stress, 20 μM probe; for Fluorescence in menadione exposed cultures relative to control non-stressed cultures: pre-confluent, proliferating Caco-2 cultures
Experimental: Initially, confluent Caco-2 cells were placed under stress using menadione then incubated with 20 μM KB861 for 30 minutes. The fluorescence of KB861 in stressed cells was then compared to that of KB861 in healthy cells using fluorescence microscopy (FIG. 5).
Confluent Caco-2 cells were placed under stress using Menadione then incubated with 20 μM KB474 for 1 minute (FIG. 6) and 15 minutes (FIG. 7). The fluorescence of the compound in the stressed cells was then compared to its fluorescence in healthy Caco-2 cells.
Pre-confluent, proliferating Caco-2 cultures were also exposed to menadione prior to staining with KB861 or KB474.
The effect of menadione concentration on the intracellular fluorescence of compound KB861 and KB474 was also investigated.

Compound	Emission intensity [1]	λmax (nm) [1]	Fluorescence emission at 540 nm, natural unoxidised state ([2]; 0.5, 1.0, 1.5 μM in THF)	Fluorescence emission at 540 nm after oxidation ([2]; 0.5, 1.0, 1.5 μM in THF, oxidised by excess AgO)	Fluorescence on exposure to hydrogen peroxide ([2]; hydrogen peroxide as stated)	Fluorescence emission after BSO exposure [3]	Effect of menadione concentration on intracellular fluorescence [4]	Decrease in fluorescence in stressed cells compared to healthy cells ([4]; 30 minutes)	Fluorescence in menadione exposed cultures relative to control non-stressed cultures [4]	Decrease in fluorescence in stressed cells compared to healthy cells ([4]; 1 minute and 15 minutes)
O=c1c(O)c(-c2cc(O)c(O)c(O)c2)oc2cc(O)cc(O)c12 [Myricetin, 3,5,7-trihydroxy-2-(3,4,5-trihydroxyphenyl)-4H-1-benzopyran-4-one, reference compound]	17.419	499.5 nm	–	–	–	–	–	–	–	–
CCCCCCCCCCc1ccc2c(=O)c(O)c(-c3cc(O)c(O)c(O)c3)oc2c1 [KB861, 7-decyl-3-hydroxy-2-(3,4,5-trihydroxyphenyl)-4H-1-benzopyran-4-one]	664.669	544.7 nm	highly fluorescent	almost completely disappears	diminished	striking decrease	correlated with the concentration of menadione exposure	30-40%	dramatically decreased	–
CCCCCCCCCCc1ccc2c(=O)c(O)c(-c3cc(O)c(O)cc3O)oc2c1 [AOX166]	0.286	514.1 nm	–	–	–	–	–	–	–	–
CCc1ccc2c(=O)c(O)c(-c3cc(O)c(O)c(O)c3)oc2c1 [KB474, 7-ethyl-3-hydroxy-2-(3,4,5-trihydroxyphenyl)-4H-1-benzopyran-4-one]	321.113	504.9 nm	–	–	–	striking decrease	dose dependent decrease	–	dramatically decreased	at least 75%
O=c1c(O)c(-c2ccc(O)c(O)c2O)oc2ccccc12 [AOX558]	0.166	457.1 nm	–	–	–	–	–	–	–	–
O=c1c(O)c(-c2cc(O)c(O)cc2O)oc2ccccc12 [AOX563]	0.199	517.0 nm	–	–	–	–	–	–	–	–
